Laboratory results taken from ChEMBL document CHEMBL1909046, “DrugMatrix in vitro pharmacology data”.

How the values were obtained:
[1] = biological target: T1, Angiotensin-converting enzyme (Oryctolagus cuniculus, UniProt P12822); format: tissue-based, Lung;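 also: enzymatic inhibition of angiotensin-converting enzyme measured with FAPGG as the substrate; in other assays of this panel Not Active means under 50% inhibition at 10 µM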
T1 sequence (P12822 whole entry): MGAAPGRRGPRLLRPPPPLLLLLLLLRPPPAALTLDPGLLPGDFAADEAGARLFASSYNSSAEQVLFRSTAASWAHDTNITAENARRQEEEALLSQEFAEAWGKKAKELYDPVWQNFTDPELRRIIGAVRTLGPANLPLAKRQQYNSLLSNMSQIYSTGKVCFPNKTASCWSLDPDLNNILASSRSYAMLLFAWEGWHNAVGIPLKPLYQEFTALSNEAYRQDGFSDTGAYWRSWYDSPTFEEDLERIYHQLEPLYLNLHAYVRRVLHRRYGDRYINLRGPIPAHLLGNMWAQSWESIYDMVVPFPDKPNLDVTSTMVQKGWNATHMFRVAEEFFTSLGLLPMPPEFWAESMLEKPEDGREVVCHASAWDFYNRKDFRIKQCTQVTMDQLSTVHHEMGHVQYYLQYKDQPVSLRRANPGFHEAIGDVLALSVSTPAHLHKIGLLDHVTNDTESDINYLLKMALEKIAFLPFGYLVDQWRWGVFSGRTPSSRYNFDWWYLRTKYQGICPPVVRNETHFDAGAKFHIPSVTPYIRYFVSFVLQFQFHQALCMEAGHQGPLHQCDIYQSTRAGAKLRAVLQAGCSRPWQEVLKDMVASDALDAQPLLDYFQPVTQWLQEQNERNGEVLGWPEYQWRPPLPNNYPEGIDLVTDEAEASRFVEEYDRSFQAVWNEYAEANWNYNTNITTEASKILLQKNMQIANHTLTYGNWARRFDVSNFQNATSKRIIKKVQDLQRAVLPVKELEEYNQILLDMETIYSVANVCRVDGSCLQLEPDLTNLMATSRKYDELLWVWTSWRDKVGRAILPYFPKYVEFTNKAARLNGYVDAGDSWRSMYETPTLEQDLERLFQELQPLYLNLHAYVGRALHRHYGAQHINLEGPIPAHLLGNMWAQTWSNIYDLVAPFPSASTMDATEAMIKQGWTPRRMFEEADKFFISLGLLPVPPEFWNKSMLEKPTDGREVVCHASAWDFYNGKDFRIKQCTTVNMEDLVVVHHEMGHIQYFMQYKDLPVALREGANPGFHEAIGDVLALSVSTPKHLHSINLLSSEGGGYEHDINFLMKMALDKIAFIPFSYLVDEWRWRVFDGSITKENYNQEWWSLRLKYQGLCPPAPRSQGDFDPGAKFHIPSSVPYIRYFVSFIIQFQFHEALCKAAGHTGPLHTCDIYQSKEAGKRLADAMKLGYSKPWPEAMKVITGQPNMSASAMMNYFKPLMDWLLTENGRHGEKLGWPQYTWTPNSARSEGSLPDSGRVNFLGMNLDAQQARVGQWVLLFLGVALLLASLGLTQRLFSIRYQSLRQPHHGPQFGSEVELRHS

[2] = biological target: T2, Type-2 angiotensin II receptor (Homo sapiens, UniProt P50052); format: cell-based; settings: cho-k1; also: in other assays of this panel Not Active means under 50% inhibition at 10 µM
T2 sequence (P50052 whole entry): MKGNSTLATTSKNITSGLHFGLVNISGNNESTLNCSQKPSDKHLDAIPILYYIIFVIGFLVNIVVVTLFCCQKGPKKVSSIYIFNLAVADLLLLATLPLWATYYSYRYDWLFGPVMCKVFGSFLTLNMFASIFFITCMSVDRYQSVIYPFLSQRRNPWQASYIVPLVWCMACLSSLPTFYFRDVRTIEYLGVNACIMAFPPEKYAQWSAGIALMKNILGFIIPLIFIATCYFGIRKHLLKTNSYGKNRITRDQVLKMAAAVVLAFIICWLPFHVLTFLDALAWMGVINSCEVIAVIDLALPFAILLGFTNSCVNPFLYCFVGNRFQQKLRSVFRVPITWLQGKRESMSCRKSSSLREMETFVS

Vasopressin V1a receptor = Vasopressin V1a receptor (Homo sapiens, UniProt P37288); format: cell membranes, Membrane; settings: hek293; also: in other assays of this panel Not Active means under 50% inhibition at 10 µM
Cannabinoid receptor 1 = Cannabinoid receptor 1 (Homo sapiens, UniProt P21554); format: cell membranes, Chem-1, Membrane; settings: chem-1; also: in other assays of this panel Not Active means under 50% inhibition at 10 µM
[3] = DRUGMATRIX: Potassium Channel [KATP] radioligand binding (ligand: [3H] Glyburide); format: cell membranes, Membrane; settings: hit-t15; Not Active = under 50% inhibition at 10 µM
[4] = biological target: T3, Muscarinic acetylcholine receptor M5 (Homo sapiens, UniProt P08912); format: cell membranes, CHO-K1, Membrane; settings: cho-k1; also: in other assays of this panel Not Active means under 50% inhibition at 10 µM
T3 sequence (P08912 whole entry): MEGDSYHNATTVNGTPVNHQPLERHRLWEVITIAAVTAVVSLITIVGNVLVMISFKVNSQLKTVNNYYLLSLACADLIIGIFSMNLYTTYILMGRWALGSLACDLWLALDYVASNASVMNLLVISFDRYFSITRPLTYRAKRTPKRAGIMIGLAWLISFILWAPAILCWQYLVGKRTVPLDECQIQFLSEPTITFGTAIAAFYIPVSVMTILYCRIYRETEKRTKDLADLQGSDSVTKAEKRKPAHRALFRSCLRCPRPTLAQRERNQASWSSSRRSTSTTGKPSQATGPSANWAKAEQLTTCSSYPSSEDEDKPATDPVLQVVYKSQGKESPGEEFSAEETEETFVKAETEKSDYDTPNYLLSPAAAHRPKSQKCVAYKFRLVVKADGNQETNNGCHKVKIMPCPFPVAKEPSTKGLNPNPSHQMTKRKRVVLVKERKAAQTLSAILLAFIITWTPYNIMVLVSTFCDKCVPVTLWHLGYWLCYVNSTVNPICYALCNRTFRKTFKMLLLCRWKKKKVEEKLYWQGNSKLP

[5] = DRUGMATRIX: Calcium Channel Type L, Benzothiazepine radioligand binding (ligand: [3H] Diltiazem); format: cell membranes, Rattus norvegicus, Wistar, Brain, Membrane; settings: Not Active = under 50% inhibition at 10 µM

Vasopressin V1a receptor, sequence (P37288 whole entry): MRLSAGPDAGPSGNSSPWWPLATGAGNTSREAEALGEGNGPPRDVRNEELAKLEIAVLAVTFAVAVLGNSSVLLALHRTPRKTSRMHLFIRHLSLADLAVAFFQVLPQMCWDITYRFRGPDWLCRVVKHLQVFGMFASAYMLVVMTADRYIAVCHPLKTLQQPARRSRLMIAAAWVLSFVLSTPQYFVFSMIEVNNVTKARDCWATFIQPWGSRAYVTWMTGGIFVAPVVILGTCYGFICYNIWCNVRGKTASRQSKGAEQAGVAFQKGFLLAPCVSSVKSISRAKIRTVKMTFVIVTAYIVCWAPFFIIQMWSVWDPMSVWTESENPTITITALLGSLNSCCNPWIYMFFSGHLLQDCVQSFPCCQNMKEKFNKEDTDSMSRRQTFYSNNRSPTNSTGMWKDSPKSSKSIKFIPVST
Cannabinoid receptor 1, sequence (P21554 whole entry): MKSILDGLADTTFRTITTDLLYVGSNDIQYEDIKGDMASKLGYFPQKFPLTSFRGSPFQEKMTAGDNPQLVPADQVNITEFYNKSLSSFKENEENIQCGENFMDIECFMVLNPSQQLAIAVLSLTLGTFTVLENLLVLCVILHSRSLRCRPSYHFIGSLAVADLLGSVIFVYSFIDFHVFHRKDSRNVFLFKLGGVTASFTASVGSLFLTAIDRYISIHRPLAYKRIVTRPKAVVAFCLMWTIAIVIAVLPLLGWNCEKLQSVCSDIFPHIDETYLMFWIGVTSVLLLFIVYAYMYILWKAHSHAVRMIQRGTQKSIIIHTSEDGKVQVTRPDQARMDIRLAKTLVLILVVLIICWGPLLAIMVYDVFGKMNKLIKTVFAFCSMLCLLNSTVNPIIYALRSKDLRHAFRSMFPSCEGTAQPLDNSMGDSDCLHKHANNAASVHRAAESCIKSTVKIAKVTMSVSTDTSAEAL

| SMILES | IC50 [1] | IC50 [2] | IC50 (Vasopressin V1a receptor) | IC50 (Cannabinoid receptor 1) | IC50 [3] | Ki [3] | IC50 [4] | IC50 [5] | Ki [5] | IC50 ([5]; read-out: IC50) [nM] | Ki ([5]; read-out: Ki) [nM] |
| --- | --- | --- | --- | --- | --- | --- | --- | --- | --- | --- | --- |
| O=C(c1ccccc1C(F)(F)F)N1CCC(Cc2ccccc2)CC1 | Not Active | Not Active | Not Active | Not Active | Not Active | Not Active | Not Active | Not Active | Not Active | – | – |
| O=C/C=C/c1ccccc1 | Not Active | Not Active | Not Active | Not Active | Not Active | Not Active | Not Active | Not Active | Not Active | – | – |
| Nc1ccc2c3c(cccc13)C(=O)NC2=O | Not Active | Not Active | Not Active | Not Active | Not Active | Not Active | Not Active | Not Active | Not Active | – | – |
| COc1ccc(C(=O)N2CCCC2=O)cc1 | Not Active | Not Active | Not Active | Not Active | Not Active | Not Active | Not Active | Not Active | Not Active | – | – |
| O=c1cnn([C@@H]2O[C@H](CO)[C@@H](O)[C@H]2O)c(=O)[nH]1 [6-AZAURIDINE] | Not Active | Not Active | Not Active | Not Active | Not Active | Not Active | Not Active | Not Active | Not Active | – | – |
| CC[C@H](C)[C@H]1O[C@]2(C=C[C@@H]1C)C[C@@H]1C[C@@H](C/C=C(\C)[C@@H](O[C@H]3C[C@H](OC)[C@@H](O[C@H]4C[C@H](OC)[C@@H](O)[C@H](C)O4)[C@H](C)O3)[C@@H](C)/C=C/C=C3\CO[C@@H]4[C@H](O)C(C)=C[C@@H](C(=O)O1)[C@]34O)O2.CO[C@H]1C[C@H](O[C@H]2[C@H](C)O[C@@H](O[C@@H]3/C(C)=C/C[C@@H]4C[C@@H](C[C@]5(C=C[C@H](C)[C@@H](C(C)C)O5)O4)OC(=O)[C@@H]4C=C(C)[C@@H](O)[C@H]5OC/C(=C\C=C\[C@@H]3C)[C@]54O)C[C@@H]2OC)O[C@@H](C)[C@@H]1O [ABAMECTIN] | Not Active | Not Active | Not Active | Not Active | Not Active | Not Active | Not Active | Not Active | Not Active | – | – |
| NCCCC(O)(P(=O)(O)O)P(=O)(O)O [ALENDRONIC ACID] | Not Active | Not Active | Not Active | Not Active | Not Active | Not Active | Not Active | Not Active | Not Active | – | – |
| Cc1nnc2n1-c1ccc(Cl)cc1C(c1ccccc1)=NC2 [ALPRAZOLAM] | Not Active | Not Active | Not Active | Not Active | Not Active | Not Active | Not Active | Not Active | Not Active | – | – |
| Cn1c(=O)c2[nH]cnc2n(C)c1=O.Cn1c(=O)c2[nH]cnc2n(C)c1=O.NCCN [AMINOPHYLLINE] | Not Active | Not Active | Not Active | Not Active | Not Active | Not Active | Not Active | Not Active | Not Active | – | – |
| CCC1(CCC(C)C)C(=O)NC(=O)NC1=O [AMOBARBITAL] | Not Active | Not Active | Not Active | Not Active | Not Active | Not Active | Not Active | Not Active | Not Active | – | – |
| CC1(C)S[C@@H]2[C@H](NC(=O)[C@H](N)c3ccccc3)C(=O)N2[C@H]1C(=O)O [AMPICILLIN] | Not Active | Not Active | Not Active | Not Active | Not Active | Not Active | Not Active | Not Active | Not Active | – | – |
| COc1ccc(C2C(=O)c3ccccc3C2=O)cc1 [ANISINDIONE] | Not Active | Not Active | Not Active | Not Active | Not Active | Not Active | Not Active | Not Active | Not Active | – | – |
| O=C1O[C@H]([C@@H](O)CO)C(O)=C1O [ASCORBIC ACID] | Not Active | Not Active | Not Active | Not Active | Not Active | Not Active | Not Active | Not Active | Not Active | – | – |
| CN1[C@@H]2CC[C@H]1C[C@@H](OC(=O)C(CO)c1ccccc1)C2 (stereo not given in full) [ATROPINE] | Not Active | Not Active | Not Active | Not Active | Not Active | Not Active | – | Not Active | Not Active | – | – |
| CC(C(=O)O)c1ccc2oc(-c3ccc(Cl)cc3)nc2c1 (stereo not given) [BENOXAPROFEN] | Not Active | Not Active | Not Active | Not Active | Not Active | Not Active | Not Active | Not Active | Not Active | – | – |
| COc1ccc2cc3[n+](cc2c1OC)CCc1cc2c(cc1-3)OCO2.[Cl-] [BERBERINE CHLORIDE] | Not Active | Not Active | Not Active | Not Active | Not Active | Not Active | Not Active | Not Active | Not Active | – | – |
| O=C(O)CCNC(=O)c1ccccc1 [BETAMIPRON] | Not Active | Not Active | Not Active | Not Active | Not Active | Not Active | Not Active | Not Active | Not Active | – | – |
| CC(=O)Oc1ccc(C(c2ccc(OC(C)=O)cc2)c2ccccn2)cc1 [BISACODYL] | Not Active | Not Active | Not Active | Not Active | Not Active | Not Active | Not Active | Not Active | Not Active | – | – |
| Cc1cc2c(OCC(CNC(C)(C)C)OC(=O)c3ccccc3)cccc2[nH]1 (stereo not given) [BOPINDOLOL] | Not Active | Not Active | Not Active | Not Active | Not Active | Not Active | Not Active | – | – | 2800 | 2490 |
